Active and inactive are the calls of the source.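 Rule for the calls: active = IC50 at or below 20 µM; inactive = the rest.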
biological target: Glucose-6-phosphate 1-dehydrogenase (Homo sapiens) (UniProt P11413); experiment: inhibition of recombinant human G6PD – biochemical, fluorescence, dose response, set 2, selectivity assay for P. falciparum G6PD inhibitor project, SAR follow-up (AID 588672); details: NADPH-diaphorase-resazurin fluorescence
Sequence (P11413 whole entry, looked up): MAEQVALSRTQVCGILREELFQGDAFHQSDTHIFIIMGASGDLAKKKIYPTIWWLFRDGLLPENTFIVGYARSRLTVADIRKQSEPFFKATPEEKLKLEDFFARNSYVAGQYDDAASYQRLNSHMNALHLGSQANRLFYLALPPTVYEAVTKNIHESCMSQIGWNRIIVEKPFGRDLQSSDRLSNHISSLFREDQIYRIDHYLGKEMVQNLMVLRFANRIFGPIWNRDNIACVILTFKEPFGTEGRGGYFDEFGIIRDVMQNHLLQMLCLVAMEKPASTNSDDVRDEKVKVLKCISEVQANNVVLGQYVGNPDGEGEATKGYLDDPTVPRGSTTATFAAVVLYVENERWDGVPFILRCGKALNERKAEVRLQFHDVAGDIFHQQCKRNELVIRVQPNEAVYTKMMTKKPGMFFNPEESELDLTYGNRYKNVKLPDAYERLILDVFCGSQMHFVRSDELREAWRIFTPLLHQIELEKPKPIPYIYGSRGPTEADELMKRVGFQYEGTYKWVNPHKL

IC50, inactive:
O=C1Nc2cc(C(=O)NCc3ccccc3)ccc2S/C1=C\c1ccccc1F > 80 µM
CCN1CCCC1CNC(=O)c1ccc2c(c1)NC(=O)CS2 (stereo not given) > 80 µM
CCN1CCCC1CNC(=O)c1ccc2c(c1)NC(=O)/C(=C/c1ccccc1C)S2 (stereo not given) > 80 µM
CCN1CCCC1CNC(=O)c1ccc2c(c1)NC(=O)c1ccccc1O2 (stereo not given) > 80 µM
O=C1Nc2cc(C(=O)NCCN3CCOCC3)ccc2S/C1=C\c1ccccc1F > 80 µM
CCN1CCC[C@@H]1CNC(=O)c1ccc2c(c1)NC(=O)/C(=C/c1ccccc1F)S2 > 80 µM
O=C1Nc2cc(C(=O)NCCN3CCCCC3)ccc2S/C1=C\c1ccccc1F > 80 µM
O=C1COc2ccc(C(=O)NCCN3CCOCC3)cc2N1 > 80 µM
O=C(NCCN1CCOCC1)c1ccc2c(c1)NC(=O)c1ccccc1O2 > 80 µM
CCN1CCC[C@H]1CNC(=O)c1ccc2c(c1)NC(=O)/C(=C/c1ccccc1F)S2 > 80 µM
CCN(CC)CCNC(=O)c1ccc2c(c1)NC(=O)CO2 > 80 µM
CCN1CCCC1CNC(=O)c1ccc2c(c1)NC(=O)CO2 (stereo not given) > 80 µM
CCN(CC)CCNC(=O)c1ccc2c(c1)NC(=O)c1ccccc1O2 > 80 µM
CN1CCN(C(=O)c2ccc3c(c2)NC(=O)/C(=C/c2ccccc2Cl)S3)CC1 > 80 µM
CCN(CC)CCNC(=O)c1ccc2c(c1)NC(=O)c1ccccc1S2 > 80 µM
O=C1Nc2cc(C(=O)NCCN3CCCC3)ccc2S/C1=C\c1ccccc1F > 80 µM
CN1CCCC1CCNC(=O)c1ccc2c(c1)NC(=O)/C(=C/c1ccccc1F)S2 (stereo not given) > 80 µM
O=C(NCCN1CCCCC1)c1ccc2c(c1)NC(=O)c1ccccc1O2 > 80 µM
O=C(NCCN1CCCC1)c1ccc2c(c1)NC(=O)c1ccccc1S2 > 80 µM
O=C1COc2ccc(C(=O)NCCN3CCCC3)cc2N1 > 80 µM
CN(C)CCNC(=O)c1ccc2c(c1)NC(=O)c1ccccc1O2 > 80 µM
O=C(NCCN1CCCC1)c1ccc2c(c1)NC(=O)c1ccccc1O2 > 80 µM
CCN1CCCC1CNC(=O)c1ccc2c(c1)NC(=O)c1ccccc1S2 (stereo not given) > 80 µM
O=C1COc2ccc(C(=O)NCCN3CCCCC3)cc2N1 > 80 µM
CCN1CCCC1CNC(=O)c1ccc2c(c1)NC(=O)/C(=C/c1ccccc1)S2 (stereo not given) > 80 µM
CCN1CCCC1CNC(=O)c1ccc2c(c1)NC(=O)/C(=C/c1ccccc1F)S2 (stereo not given) > 80 µM
CN(C)CCNC(=O)c1ccc2c(c1)NC(=O)/C(=C/c1ccccc1F)S2 > 80 µM
CN(C)CCNC(=O)c1ccc2c(c1)NC(=O)CO2 > 80 µM
CCN1CCCC1CNC(=O)c1ccc2c(c1)NC(=O)/C(=C/c1ccccc1OC)S2 (stereo not given) > 80 µM
CCN1CCCC1CNC(=O)c1ccc2c(c1)NC(=O)/C(=C/c1cccc3ccccc13)S2 (stereo not given) > 80 µM

From PubChem BioAssay AID588672 (Sanford-Burnham Center for Chemical Genomics, 2011)
